# ChEMBL document CHEMBL4364276, “Discovery of 4-phenyl-2H-benzo[b][1,4]oxazin-3(4H)-one derivatives as potent and orally active PI3K/mTOR dual inhibitors” (Eur J Med Chem, 2019)
# pIC50: −log10 of the molar value.
# Key:
# [1] = target: Dual specificity mitogen-activated protein kinase kinase 1 (Homo sapiens) (UniProt Q02750); test: Inhibition of human MEK1 at 100 nM using ERK2 as substrate by [gamma-33P]-ATP assay
# [2] = target: Insulin-like growth factor 1 receptor (Homo sapiens) (UniProt P08069); test: Inhibition of human IGF1R at 100 nM using KKKSPGEYVNIEFG as substrate by [gamma-33P]-ATP assay
# [3] = target: Casein kinase I isoform alpha (Homo sapiens) (UniProt P48729); test: Inhibition of human CK1a1 at 100 nM using KRRRAL[pS]VASLPGL as substrate by [gamma-33P]-ATP assay
# [4] = target: LIM domain kinase 2 (Homo sapiens) (UniProt P53671); test: Inhibition of human LIMK2 at 100 nM using cofilin as substrate by [gamma-33P]-ATP assay
# [5] = target: Serine/threonine-protein kinase PLK1 (Homo sapiens) (UniProt P53350); test: Inhibition of human PLK1 at 100 nM using casein as substrate by [gamma-33P]-ATP assay
# [6] = target: CDC7/DBF4 (Cell division cycle 7-related protein kinase/Activator of S phase kinase) (Homo sapiens) (UniProt Q9UBU7+O00311); test: Inhibition of human CDC7/DBF4 at 100 nM using KTFCGTPEYLAPEVRREPRILSEEEQEMFRDFDYIADWC as substrate by [gamma-33P]-ATP assay; type: protein-complex assay
# [7] = target: Insulin receptor (Homo sapiens) (UniProt P06213); test: Inhibition of human IR at 100 nM using poly[Glu:Tyr] (4:1) as substrate by [gamma-33P]-ATP assay
# Sequence of Insulin receptor (Homo sapiens) (P06213 28-758 limits assumed): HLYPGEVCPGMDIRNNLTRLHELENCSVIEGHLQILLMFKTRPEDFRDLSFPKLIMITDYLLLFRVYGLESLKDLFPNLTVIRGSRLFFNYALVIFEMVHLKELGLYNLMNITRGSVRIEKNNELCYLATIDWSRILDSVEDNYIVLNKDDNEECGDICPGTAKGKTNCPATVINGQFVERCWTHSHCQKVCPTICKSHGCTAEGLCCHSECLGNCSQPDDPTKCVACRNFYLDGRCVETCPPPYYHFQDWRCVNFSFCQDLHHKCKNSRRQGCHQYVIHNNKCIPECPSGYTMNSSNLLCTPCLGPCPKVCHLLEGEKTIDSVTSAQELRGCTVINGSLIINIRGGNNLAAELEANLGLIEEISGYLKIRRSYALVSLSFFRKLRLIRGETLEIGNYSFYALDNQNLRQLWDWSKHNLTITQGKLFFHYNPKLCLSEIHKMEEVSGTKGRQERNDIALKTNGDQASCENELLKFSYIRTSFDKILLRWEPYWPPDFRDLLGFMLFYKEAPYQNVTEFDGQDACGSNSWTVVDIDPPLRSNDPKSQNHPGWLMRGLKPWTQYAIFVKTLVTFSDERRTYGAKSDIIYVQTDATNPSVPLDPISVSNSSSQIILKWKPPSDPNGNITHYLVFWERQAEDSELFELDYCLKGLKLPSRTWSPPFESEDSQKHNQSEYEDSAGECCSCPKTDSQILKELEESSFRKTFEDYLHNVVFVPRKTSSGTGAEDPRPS
# Sequence of Insulin receptor (Homo sapiens) (P06213 763-1382 limits assumed): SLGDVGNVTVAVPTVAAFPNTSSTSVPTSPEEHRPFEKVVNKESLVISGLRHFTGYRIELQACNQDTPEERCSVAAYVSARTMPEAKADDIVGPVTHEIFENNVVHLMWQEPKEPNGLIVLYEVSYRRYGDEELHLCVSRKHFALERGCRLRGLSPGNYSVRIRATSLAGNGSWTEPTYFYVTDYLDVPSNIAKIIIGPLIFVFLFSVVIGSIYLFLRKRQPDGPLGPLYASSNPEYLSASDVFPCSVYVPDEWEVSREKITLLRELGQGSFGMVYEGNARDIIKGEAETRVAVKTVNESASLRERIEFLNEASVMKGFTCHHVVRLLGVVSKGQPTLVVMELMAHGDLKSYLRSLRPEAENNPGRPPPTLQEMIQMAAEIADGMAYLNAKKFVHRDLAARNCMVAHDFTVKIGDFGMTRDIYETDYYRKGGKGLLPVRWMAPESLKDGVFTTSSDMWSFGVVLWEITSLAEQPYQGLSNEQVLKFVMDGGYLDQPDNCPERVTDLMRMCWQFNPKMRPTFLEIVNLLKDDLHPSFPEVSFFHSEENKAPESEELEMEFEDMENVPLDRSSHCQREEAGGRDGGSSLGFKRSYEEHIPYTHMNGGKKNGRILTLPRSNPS
# [8] = target: Fibroblast growth factor receptor 3 (Homo sapiens) (UniProt P22607); test: Inhibition of human FGFR3 at 100 nM using poly[Glu:Tyr] (4:1) as substrate by [gamma-33P]-ATP assay
# [9] = target: Tyrosine-protein kinase FRK (Homo sapiens) (UniProt P42685); test: Inhibition of human FRK at 100 nM using poly[Glu:Tyr] (4:1) as substrate by [gamma-33P]-ATP assay
# [10] = target: Phosphorylase b kinase gamma catalytic chain, liver/testis isoform (Homo sapiens) (UniProt P15735); test: Inhibition of human PHKgamma2 at 100 nM using MBP as substrate by [gamma-33P]-ATP assay
# [11] = target: Myosin light chain kinase, smooth muscle (Homo sapiens) (UniProt Q15746); test: Inhibition of human MLCK at 100 nM using KKLNRTLSFAEPG as substrate by [gamma-33P]-ATP assay
# [12] = target: Myotonin-protein kinase (Homo sapiens) (UniProt Q09013); test: Inhibition of human DMPK at 100 nM using KKRNRRLSVA as substrate by [gamma-33P]-ATP assay
# [13] = target: Casein kinase I isoform delta (Homo sapiens) (UniProt P48730); test: Inhibition of human CK1D at 100 nM using KRRRAL[pS]VASLPGL as substrate by [gamma-33P]-ATP assay
# [14] = target: 3-phosphoinositide-dependent protein kinase 1 (Homo sapiens) (UniProt O15530); test: Inhibition of human PDK1/PDPk1 at 100 nM using [KTFCGTPEYLAPEVRREPRILSEEEQEMFRDFDYIADWC as substrate by [gamma-33P]-ATP assay
# [15] = target: Ephrin type-B receptor 1 (Homo sapiens) (UniProt P54762); test: Inhibition of human EPHB1 at 100 nM using poly[Glu:Tyr] (4:1) as substrate by [gamma-33P]-ATP assay
# [16] = Inhibition of PI3K/Akt/mTOR signaling in human HeLa cells assessed as reduction in AKT 473 phosphorylation incubated for 24 hrs by Western blot analysis; type: cell-based
# [17] = target: Serine/threonine-protein kinase Nek4 (Homo sapiens) (UniProt P51957); test: Inhibition of human NEK4 at 100 nM using MBP as substrate by [gamma-33P]-ATP assay
# Sequence of Serine/threonine-protein kinase Nek4 (Homo sapiens) (P51957 whole entry, looked up): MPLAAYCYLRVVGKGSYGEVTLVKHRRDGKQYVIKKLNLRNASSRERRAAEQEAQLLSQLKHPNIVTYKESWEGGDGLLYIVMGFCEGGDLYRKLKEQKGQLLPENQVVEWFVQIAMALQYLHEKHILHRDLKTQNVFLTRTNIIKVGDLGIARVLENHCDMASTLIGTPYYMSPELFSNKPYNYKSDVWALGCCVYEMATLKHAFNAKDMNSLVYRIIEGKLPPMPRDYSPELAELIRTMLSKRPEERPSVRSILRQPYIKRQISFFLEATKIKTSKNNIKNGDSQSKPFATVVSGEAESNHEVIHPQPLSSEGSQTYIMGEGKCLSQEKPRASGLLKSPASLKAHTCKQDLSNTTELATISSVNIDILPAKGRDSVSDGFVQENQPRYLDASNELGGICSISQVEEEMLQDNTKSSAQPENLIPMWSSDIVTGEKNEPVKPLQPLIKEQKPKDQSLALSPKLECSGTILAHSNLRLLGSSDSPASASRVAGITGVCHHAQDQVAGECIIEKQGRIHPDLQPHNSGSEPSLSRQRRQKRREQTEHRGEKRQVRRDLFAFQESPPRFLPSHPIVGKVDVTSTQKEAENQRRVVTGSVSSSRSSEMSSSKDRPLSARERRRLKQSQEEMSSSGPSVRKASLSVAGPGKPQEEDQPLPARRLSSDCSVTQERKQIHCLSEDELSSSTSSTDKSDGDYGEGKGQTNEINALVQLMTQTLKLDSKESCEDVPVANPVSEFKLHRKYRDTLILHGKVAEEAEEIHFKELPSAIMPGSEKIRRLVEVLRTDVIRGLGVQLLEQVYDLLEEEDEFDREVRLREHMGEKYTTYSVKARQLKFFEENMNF
# [18] = target: Serine/threonine-protein kinase SIK3 (Homo sapiens) (UniProt Q9Y2K2); test: Inhibition of human SIK3 at 100 nM using AMARAASAAALARRR as substrate by [gamma-33P]-ATP assay
# [19] = target: [Pyruvate dehydrogenase (acetyl-transferring)] kinase isozyme 4, mitochondrial (Homo sapiens) (UniProt Q16654); test: Inhibition of human PDK4 at 100 nM using MBP as substrate by [gamma-33P]-ATP assay
# Sequence of [Pyruvate dehydrogenase (acetyl-transferring)] kinase isozyme 4, mitochondrial (Homo sapiens) (Q16654 whole entry, looked up): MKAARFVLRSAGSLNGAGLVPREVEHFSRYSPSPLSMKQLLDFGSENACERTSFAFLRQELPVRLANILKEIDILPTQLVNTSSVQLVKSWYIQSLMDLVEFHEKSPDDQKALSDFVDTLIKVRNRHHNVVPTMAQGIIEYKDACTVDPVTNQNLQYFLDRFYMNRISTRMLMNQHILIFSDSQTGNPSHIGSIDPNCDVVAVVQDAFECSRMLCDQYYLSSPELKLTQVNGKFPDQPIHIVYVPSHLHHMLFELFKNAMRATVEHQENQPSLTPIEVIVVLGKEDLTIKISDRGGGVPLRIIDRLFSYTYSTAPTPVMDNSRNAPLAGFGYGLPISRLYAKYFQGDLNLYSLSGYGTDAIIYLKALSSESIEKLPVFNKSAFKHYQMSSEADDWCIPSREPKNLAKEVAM
# [20] = target: Serine/threonine-protein kinase B-raf (Homo sapiens) (UniProt P15056); test: Inhibition of human BRAF at 100 nM using MEK1 (K97R) as substrate by [gamma-33P]-ATP assay
# [21] = target: MAP kinase-activated protein kinase 3 (Homo sapiens) (UniProt Q16644); test: Inhibition of human MAPKAPK3 at 100 nM using KKLNRTLSVA as substrate by [gamma-33P]-ATP assay
# Sequence of MAP kinase-activated protein kinase 3 (Homo sapiens) (Q16644 whole entry, looked up): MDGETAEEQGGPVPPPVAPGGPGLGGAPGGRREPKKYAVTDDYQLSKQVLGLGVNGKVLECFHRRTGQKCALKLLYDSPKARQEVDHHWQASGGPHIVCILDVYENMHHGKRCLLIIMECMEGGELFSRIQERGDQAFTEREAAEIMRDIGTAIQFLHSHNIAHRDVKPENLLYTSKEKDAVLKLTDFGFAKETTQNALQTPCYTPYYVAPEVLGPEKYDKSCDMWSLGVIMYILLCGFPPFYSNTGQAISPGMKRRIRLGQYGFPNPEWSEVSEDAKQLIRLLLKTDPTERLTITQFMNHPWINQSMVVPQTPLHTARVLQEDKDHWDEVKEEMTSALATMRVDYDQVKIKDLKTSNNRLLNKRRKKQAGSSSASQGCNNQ
# [22] = target: Proto-oncogene tyrosine-protein kinase Src (Homo sapiens) (UniProt P12931); test: Inhibition of human c-SRC at 100 nM using poly[Glu:Tyr] (4:1) as substrate by [gamma-33P]-ATP assay
# [23] = target: Serine/threonine-protein kinase PAK 5 (Homo sapiens) (UniProt Q9P286); test: Inhibition of human PAK5 at 100 nM using RRRLSFAEPG as substrate by [gamma-33P]-ATP assay
# A-375 = test: Antiproliferative activity against human A375 cells assessed as reduction in cell viability incubated for 72 hrs by MTT assay; type: functional, cell-based; conditions: A-375, 72 h
# Homo sapiens = species on record: Homo sapiens; test: Inhibition of human AMPK (A2/B1/G1) at 100 nM using HMRSAMSGLHLVKRR as substrate by [gamma-33P]-ATP assay
# [24] = target: Tyrosine-protein kinase CSK (Homo sapiens) (UniProt P41240); test: Inhibition of human CSK at 100 nM using poly[Glu:Tyr] (4:1) as substrate by [gamma-33P]-ATP assay
# Sequence of Tyrosine-protein kinase CSK (Homo sapiens) (P41240 2-450 limits assumed): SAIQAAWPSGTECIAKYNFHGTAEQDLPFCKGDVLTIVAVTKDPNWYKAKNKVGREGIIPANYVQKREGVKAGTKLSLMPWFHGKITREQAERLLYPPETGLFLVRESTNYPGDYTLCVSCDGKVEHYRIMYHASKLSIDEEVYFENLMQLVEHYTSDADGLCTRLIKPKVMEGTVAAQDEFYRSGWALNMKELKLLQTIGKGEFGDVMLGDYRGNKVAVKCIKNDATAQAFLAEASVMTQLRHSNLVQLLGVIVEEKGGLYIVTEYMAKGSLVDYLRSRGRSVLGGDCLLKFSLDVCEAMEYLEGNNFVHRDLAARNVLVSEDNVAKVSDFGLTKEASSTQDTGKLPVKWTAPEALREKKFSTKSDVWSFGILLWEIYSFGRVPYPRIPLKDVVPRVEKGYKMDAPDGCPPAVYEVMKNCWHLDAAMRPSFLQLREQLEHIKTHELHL
# [25] = target: Fibroblast growth factor receptor 1 (Homo sapiens) (UniProt P11362); test: Inhibition of human FGFR1 at 100 nM using KKKSPGEYVNIEFG as substrate by [gamma-33P]-ATP assay
# [26] = target: Mitogen-activated protein kinase 7 (Homo sapiens) (UniProt Q13164); test: Inhibition of human ERK5 at 100 nM using MBP as substrate by [gamma-33P]-ATP assay
# [27] = target: Mitogen-activated protein kinase 12 (Homo sapiens) (UniProt P53778); test: Inhibition of human p38gamma at 100 nM using MBP as substrate by [gamma-33P]-ATP assay
# [28] = target: TRAF2 and NCK-interacting protein kinase (Homo sapiens) (UniProt Q9UKE5); test: Inhibition of human TNIK at 100 nM using RLGRDKYKTLRQIRQ as substrate by [gamma-33P]-ATP assay
# Sequence of TRAF2 and NCK-interacting protein kinase (Homo sapiens) (Q9UKE5 whole entry, looked up): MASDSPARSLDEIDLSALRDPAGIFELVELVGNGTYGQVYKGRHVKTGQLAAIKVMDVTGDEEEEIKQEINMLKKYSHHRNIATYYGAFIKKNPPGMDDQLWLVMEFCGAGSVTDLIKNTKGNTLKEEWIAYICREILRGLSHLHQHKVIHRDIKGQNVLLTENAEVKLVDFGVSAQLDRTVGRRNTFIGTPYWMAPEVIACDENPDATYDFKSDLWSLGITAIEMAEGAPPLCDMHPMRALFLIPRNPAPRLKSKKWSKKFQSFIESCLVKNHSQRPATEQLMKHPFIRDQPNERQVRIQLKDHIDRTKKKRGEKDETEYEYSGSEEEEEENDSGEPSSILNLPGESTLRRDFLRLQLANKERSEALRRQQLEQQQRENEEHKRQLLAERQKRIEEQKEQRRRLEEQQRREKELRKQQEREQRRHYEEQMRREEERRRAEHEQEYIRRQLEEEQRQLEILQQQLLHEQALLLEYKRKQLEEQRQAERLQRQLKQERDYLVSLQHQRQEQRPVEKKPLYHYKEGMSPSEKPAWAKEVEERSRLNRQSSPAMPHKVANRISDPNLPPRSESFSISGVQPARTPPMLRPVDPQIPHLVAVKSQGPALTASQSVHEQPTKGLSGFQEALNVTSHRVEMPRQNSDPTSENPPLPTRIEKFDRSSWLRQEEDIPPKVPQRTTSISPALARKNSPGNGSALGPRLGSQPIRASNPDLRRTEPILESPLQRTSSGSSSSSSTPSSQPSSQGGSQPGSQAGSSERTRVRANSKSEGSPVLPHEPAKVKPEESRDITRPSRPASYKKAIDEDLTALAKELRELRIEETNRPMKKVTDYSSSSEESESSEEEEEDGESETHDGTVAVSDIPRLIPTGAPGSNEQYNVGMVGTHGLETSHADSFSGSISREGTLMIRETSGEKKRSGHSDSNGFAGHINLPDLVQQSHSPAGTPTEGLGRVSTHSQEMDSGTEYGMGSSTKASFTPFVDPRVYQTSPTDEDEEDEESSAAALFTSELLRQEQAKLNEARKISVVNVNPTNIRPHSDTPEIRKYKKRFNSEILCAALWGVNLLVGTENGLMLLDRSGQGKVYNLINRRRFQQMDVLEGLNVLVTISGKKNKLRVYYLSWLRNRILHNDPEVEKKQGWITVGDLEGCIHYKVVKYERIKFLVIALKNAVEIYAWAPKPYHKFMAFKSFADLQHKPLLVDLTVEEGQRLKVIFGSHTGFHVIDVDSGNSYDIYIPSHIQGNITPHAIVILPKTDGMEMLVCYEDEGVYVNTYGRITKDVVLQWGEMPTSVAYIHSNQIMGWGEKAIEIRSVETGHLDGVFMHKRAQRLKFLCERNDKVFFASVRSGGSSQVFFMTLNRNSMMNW
# [29] = Oral bioavailability in Sprague-Dawley rat at 10 mg/kg measured upto 24 hrs by LC-MS/MS analysis; type: ADME, organism-based; conditions: in vivo
compound,measurement,setting,value
COc1ccc(N2C(=O)COc3ccc(-c4cnc(OC)c(NS(=O)(=O)c5ccc(F)cc5)c4)cc32)cc1,inhibition,[1],1.42%
same,inhibition,[2],-4.3%
same,inhibition,[3],16.6%
same,inhibition,[4],2.98%
same,inhibition,[5],8.68%
same,inhibition,[6],8.12%
same,inhibition,[7],6.82%
same,inhibition,[8],-7.49%
same,inhibition,[9],8.7%
same,inhibition,[10],20%
same,inhibition,[11],7.23%
same,inhibition,[12],-4.58%
same,inhibition,[13],2.83%
same,inhibition,[14],-3.45%
same,inhibition,[15],8.67%
same,inhibition,[16],Dose-dependent effect
same,inhibition,[17],-6.56%
same,inhibition,[18],8.49%
same,inhibition,[19],-4.54%
same,inhibition,[20],5.74%
same,inhibition,[21],12.8%
same,inhibition,[22],6.76%
same,inhibition,[23],-1.26%
same,pIC50,A-375,4.74
same,inhibition,Homo sapiens,-3.88%
same,inhibition,[24],1%
same,inhibition,[25],-9.98%
same,inhibition,[26],-7.53%
same,inhibition,[27],-3.86%
same,inhibition,[28],15.6%
same,bioavailability,[29],24.1%
